The source of these data is the NIST ThermoML archive (doi:10.1021/je201349k).

Numbers after ± are expanded uncertainties.

The conditions of this data set: Liquid.

As for `CC(C)(C)N` [2-methyl-2-propanamine], the “vapor or sublimation pressure” value (317.55 K) was 101 ± 0.86 kPa.
Consider `CN(C)C=O` [dimethylformamide], for which the “vapor or sublimation pressure” value (425.15 K) was determined as 101 ± 0.86 kPa.
Take `CO` [methanol]: the “vapor or sublimation pressure” value (337.85 K) turned out to be 101 ± 0.86 kPa.
